Test system: 967376-340-R-J2-PDC multicell spheroid viability
Test: Anticancer human tumor 967376-340-R-J2-PDC patient-derived colon adenocarcinoma cell line growth inhibition [PI3K]
Conditions: for IC50: curve of first compound; for viability, T/C: stronger effect = lower value
How it was run: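 Spheroid viability read-out. Co-cultures contained the tumor line plus HUVEC and human MSCs. Each agent was paired with a PI3K inhibitor (inavolisib, alpelisib, duvelisib, copanlisib) across half-log dilutions starting at clinical Cmax, or at 10 microM when Cmax was unknown.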

[1] = second compound 0.00316 µM, first compound 0.0316 µM
[2] = second compound 0.00316 µM, first compound 0.1 µM
[3] = second compound 0.00316 µM, first compound 0.316 µM
[4] = second compound 0.00316 µM, first compound 1 µM
[5] = second compound 0.00316 µM, first compound 3.16 µM
[6] = second compound 0.00316 µM, first compound 10 µM
[7] = second compound 0.01 µM, first compound 0.0316 µM
[8] = second compound 0.01 µM, first compound 0.1 µM
[9] = second compound 0.01 µM, first compound 0.316 µM
[10] = second compound 0.01 µM, first compound 1 µM
[11] = second compound 0.01 µM, first compound 3.16 µM
[12] = second compound 0.01 µM, first compound 10 µM
[13] = second compound 0.0316 µM, first compound 0.0316 µM
[14] = second compound 0.0316 µM, first compound 0.1 µM
[15] = second compound 0.0316 µM, first compound 0.316 µM
[16] = second compound 0.0316 µM, first compound 1 µM
[17] = second compound 0.0316 µM, first compound 3.16 µM
[18] = second compound 0.0316 µM, first compound 10 µM
[19] = second compound 0.1 µM, first compound 0.0316 µM
[20] = second compound 0.1 µM, first compound 0.1 µM
[21] = second compound 0.1 µM, first compound 0.316 µM
[22] = second compound 0.1 µM, first compound 1 µM
[23] = second compound 0.1 µM, first compound 3.16 µM
[24] = second compound 0.1 µM, first compound 10 µM
[25] = second compound 0.316 µM, first compound 0.0316 µM
[26] = second compound 0.316 µM, first compound 0.1 µM
[27] = second compound 0.316 µM, first compound 0.316 µM
[28] = second compound 0.316 µM, first compound 1 µM
[29] = second compound 0.316 µM, first compound 3.16 µM
[30] = second compound 0.316 µM, first compound 10 µM
[31] = second compound 1 µM, first compound 0.0316 µM
[32] = second compound 1 µM, first compound 0.1 µM
[33] = second compound 1 µM, first compound 0.316 µM
[34] = second compound 1 µM, first compound 1 µM
[35] = second compound 1 µM, first compound 3.16 µM
[36] = second compound 1 µM, first compound 10 µM
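Note: spheroids exposed to agents for 7 days before read-out.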
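Throughout, for viability, T/C: luminescence used as surrogate of cell viability.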

## C#Cc1c(F)ccc2cc(O)cc(-c3ncc4c(N5CC6CCC(C5)N6)nc(OCC56CCCN5CC(F)C6)nc4c3F)c12 (stereo not drawn) + COc1c(OCCCN2CCOCC2)ccc2c3n(c(=NC(=O)c4cnc(N)nc4)nc12)CCN3
Second compound 0.00316 µM
  IC50: > 10 µM
Second compound 0.01 µM
  IC50: > 10 µM
Second compound 0.0316 µM
  IC50: > 10 µM
Second compound 0.1 µM
  IC50: 1.21 µM
Second compound 0.316 µM
  IC50: 3.64 µM
Second compound 1 µM
  IC50: < 0.0316 µM
[1]
  viability, T/C: 89%
[2]
  viability, T/C: 99.1%
[3]
  viability, T/C: 101%
[4]
  viability, T/C: 109%
[5]
  viability, T/C: 91.8%
[6]
  viability, T/C: 84.7%
[7]
  viability, T/C: 94.2%
[8]
  viability, T/C: 102%
[9]
  viability, T/C: 79.2%
[10]
  viability, T/C: 91.6%
[11]
  viability, T/C: 77.9%
[12]
  viability, T/C: 62.9%
[13]
  viability, T/C: 83%
[14]
  viability, T/C: 82.5%
[15]
  viability, T/C: 81.5%
[16]
  viability, T/C: 77.1%
[17]
  viability, T/C: 81.8%
[18]
  viability, T/C: 57.3%
[19]
  viability, T/C: 68.4%
[20]
  viability, T/C: 61.8%
[21]
  viability, T/C: 58.1%
[22]
  viability, T/C: 48.8%
[23]
  viability, T/C: 47.1%
[24]
  viability, T/C: 49%
[25]
  viability, T/C: 56.1%
[26]
  viability, T/C: 48.2%
[27]
  viability, T/C: 53.7%
[28]
  viability, T/C: 42.3%
[29]
  viability, T/C: 63.6%
[30]
  viability, T/C: 29.8%
[31]
  viability, T/C: 42.9%
[32]
  viability, T/C: 40.9%
[33]
  viability, T/C: 44.2%
[34]
  viability, T/C: 40%
[35]
  viability, T/C: 40.7%
[36]
  viability, T/C: 18.6%

## C=CC(=O)N1CCN(c2nc(=O)n(-c3c(C)ccnc3C(C)C)c3nc(-c4c(O)cccc4F)c(F)cc23)C(C)C1 (stereo not drawn) + COc1c(OCCCN2CCOCC2)ccc2c3n(c(=NC(=O)c4cnc(N)nc4)nc12)CCN3
Second compound 0.00316 µM
  IC50: > 10 µM
Second compound 0.01 µM
  IC50: > 10 µM
Second compound 0.0316 µM
  IC50: > 10 µM
Second compound 0.1 µM
  IC50: > 10 µM
Second compound 0.316 µM
  IC50: < 0.0316 µM
Second compound 1 µM
  IC50: < 0.0316 µM
[1]
  viability, T/C: 112%
[2]
  viability, T/C: 101%
[3]
  viability, T/C: 91.7%
[4]
  viability, T/C: 92.6%
[5]
  viability, T/C: 111%
[6]
  viability, T/C: 70.2%
[7]
  viability, T/C: 95.5%
[8]
  viability, T/C: 97.8%
[9]
  viability, T/C: 90.8%
[10]
  viability, T/C: 80.4%
[11]
  viability, T/C: 84.8%
[12]
  viability, T/C: 73.5%
[13]
  viability, T/C: 74%
[14]
  viability, T/C: 81.7%
[15]
  viability, T/C: 73.1%
[16]
  viability, T/C: 70.3%
[17]
  viability, T/C: 85.6%
[18]
  viability, T/C: 79.8%
[19]
  viability, T/C: 55.3%
[20]
  viability, T/C: 78.6%
[21]
  viability, T/C: 63.9%
[22]
  viability, T/C: 66%
[23]
  viability, T/C: 84%
[24]
  viability, T/C: 52%
[25]
  viability, T/C: 50.5%
[26]
  viability, T/C: 41%
[27]
  viability, T/C: 41.3%
[28]
  viability, T/C: 40.3%
[29]
  viability, T/C: 50.1%
[30]
  viability, T/C: 42.6%
[31]
  viability, T/C: 33.6%
[32]
  viability, T/C: 36%
[33]
  viability, T/C: 29.6%
[34]
  viability, T/C: 34.5%
[35]
  viability, T/C: 37.9%
[36]
  viability, T/C: 39.5%

## CC(Cn1ccc(-c2ccc(C#N)c(Cl)c2)n1)NC(=O)c1cc(C(C)O)[nH]n1 (stereo not drawn) + COc1c(OCCCN2CCOCC2)ccc2c3n(c(=NC(=O)c4cnc(N)nc4)nc12)CCN3
Second compound 0.00316 µM
  IC50: > 10 µM
Second compound 0.01 µM
  IC50: > 10 µM
Second compound 0.0316 µM
  IC50: > 10 µM
Second compound 0.1 µM
  IC50: > 10 µM
Second compound 0.316 µM
  IC50: 0.0954 µM
Second compound 1 µM
  IC50: < 0.0316 µM
[1]
  viability, T/C: 109%
[2]
  viability, T/C: 117%
[3]
  viability, T/C: 79.6%
[4]
  viability, T/C: 93.6%
[5]
  viability, T/C: 110%
[6]
  viability, T/C: 86%
[7]
  viability, T/C: 91.2%
[8]
  viability, T/C: 77%
[9]
  viability, T/C: 76.8%
[10]
  viability, T/C: 91.6%
[11]
  viability, T/C: 82.7%
[12]
  viability, T/C: 86.1%
[13]
  viability, T/C: 81.7%
[14]
  viability, T/C: 88.1%
[15]
  viability, T/C: 61.9%
[16]
  viability, T/C: 57.7%
[17]
  viability, T/C: 76.4%
[18]
  viability, T/C: 63.8%
[19]
  viability, T/C: 78.6%
[20]
  viability, T/C: 54.4%
[21]
  viability, T/C: 59.4%
[22]
  viability, T/C: 67.5%
[23]
  viability, T/C: 70.5%
[24]
  viability, T/C: 59.5%
[25]
  viability, T/C: 64.2%
[26]
  viability, T/C: 44.9%
[27]
  viability, T/C: 48.2%
[28]
  viability, T/C: 46.1%
[29]
  viability, T/C: 57.4%
[30]
  viability, T/C: 50.3%
[31]
  viability, T/C: 36.6%
[32]
  viability, T/C: 42.4%
[33]
  viability, T/C: 26.6%
[34]
  viability, T/C: 47.1%
[35]
  viability, T/C: 34.4%
[36]
  viability, T/C: 32.6%

## CC1(C)CCC(Nc2ncc(C(F)(F)F)c(-c3c[nH]c4c(P(C)(C)=O)c(C#N)ccc34)n2)CN1 (stereo not drawn) + COc1c(OCCCN2CCOCC2)ccc2c3n(c(=NC(=O)c4cnc(N)nc4)nc12)CCN3
Second compound 0.00316 µM
  IC50: > 10 µM
Second compound 0.01 µM
  IC50: 9.47 µM
Second compound 0.0316 µM
  IC50: 3.06 µM
Second compound 0.1 µM
  IC50: 0.196 µM
Second compound 0.316 µM
  IC50: < 0.0316 µM
Second compound 1 µM
  IC50: < 0.0316 µM
[1]
  viability, T/C: 84.5%
[2]
  viability, T/C: 81.8%
[3]
  viability, T/C: 80.2%
[4]
  viability, T/C: 80%
[5]
  viability, T/C: 66.2%
[6]
  viability, T/C: 59.6%
[7]
  viability, T/C: 79.7%
[8]
  viability, T/C: 77.4%
[9]
  viability, T/C: 75.2%
[10]
  viability, T/C: 75.5%
[11]
  viability, T/C: 61.9%
[12]
  viability, T/C: 49.4%
[13]
  viability, T/C: 69.9%
[14]
  viability, T/C: 84%
[15]
  viability, T/C: 73.8%
[16]
  viability, T/C: 66.5%
[17]
  viability, T/C: 49.4%
[18]
  viability, T/C: 45.9%
[19]
  viability, T/C: 72.3%
[20]
  viability, T/C: 47.6%
[21]
  viability, T/C: 54.1%
[22]
  viability, T/C: 45.5%
[23]
  viability, T/C: 43.7%
[24]
  viability, T/C: 36.5%
[25]
  viability, T/C: 49.4%
[26]
  viability, T/C: 45%
[27]
  viability, T/C: 37.3%
[28]
  viability, T/C: 38.4%
[29]
  viability, T/C: 36.6%
[30]
  viability, T/C: 22.3%
[31]
  viability, T/C: 32%
[32]
  viability, T/C: 27.4%
[33]
  viability, T/C: 34%
[34]
  viability, T/C: 30.7%
[35]
  viability, T/C: 27.1%
[36]
  viability, T/C: 20.9%

— PubChem BioAssay AID1963962 (Molecular Pharmacology Branch, DTP, NCI, 2024)
